The values that follow come from patent US20250018019A1, “TREATMENT OF INTERFERON DRIVEN INFLAMMATION” (The Provost, Fellows, Foundation Scholars and the other …, priority 2023, published 2025).

The test system of one assay is BMDMs. The assay can be described thus: Digitonin fractionation, qPCR of mtDNA and mtRNA. It is filed as cell-based, mouse. As for the experimental part:
All compounds used DMSO as a vehicle except for 4-hydroxy tamoxifen (EtOH), NAC (PBS), and AOAA for tracing experiments (Media). LPS was used at a concentration of 100 ng/ml for indicated timepoints (2, 3, 4, 6, 8, 24, 48 h). FHIN1 (10 or 20 μM), MMF (50 or 100 μM), DMF (25 μM), AOAA (5 mM), oligomycin (10 μM), CCCP (50 μM) NAC (1 mM), and IMT1 (10 μM) pre-treatments were performed for 3 h prior the addition of LPS. Cells were treated with valinomycin (10 nM) 15 mins before LPS stimulation. Anti-CD210 or IgG control (10 μg/ml) antibodies were added to cells 1 h prior to LPS stimulation. Recombinant mouse IL-10 protein (100 ng/ml) was added to cells at the same time as LPS. Cells were treated with IFN-B1 (220 ng/ml) for 3 h. Cells were treated with C-178 (1 μM) 1 h prior to LPS stimulation or transfection with 2′3′-cGAMP (1.5 μg/ml) for 4 hrs to achieve cGAS-STING activation. Cells were treated with ODN 2088 (1 μM) for 1 hr prior to LPS stimulation or transfection with CPG ODN 1826 (1.5 μg/ml) to achieve TLR9 activation. 3 different timepoints of 4-hydroxy tamoxifen (TAM) (600 nM or 2 μM) or EtOH treatment were performed-these are specified in the individual figure legends. For ‘48 h’ treatments EtOH/TAM was added on day 5 of 6 during the BMDM differentiation protocol. On day 6 they were plated with EtOH/TAM (left overnight) and treated the following day. For ‘72 h’ treatments EtOH/TAM was added on day […] of 6 during the BMDM differentiation protocol. On day 6 they were plated with EtOH/TAM (left overnight) and treated the following day. For ‘96 h’ treatments EtOH/TAM was added on day […] of 6 during the BMDM differentiation protocol. On day 6 they were plated with EtOH/TAM and treated 2 days later.
BMDMs were plated at 0.5×10^6 cells/well and treated as desired. After treatment, cells were washed once with room temperature PBS, before being scraped on ice into ice cold PBS and pelleted at 500×g for 5 mins at 4° C. Supernatant was removed and discarded, and the pellet was resuspended in 400 μl extraction buffer (150 mM NaCl, 50 mM HEPES pH 7.4, 25 μg/ml digitonin). Samples were then placed in a rotating mixer at 4° C. for 10 mins before centrifugation at 2000×g at 4° C. for 5 mins. The resulting supernatant constituted the cytosolic fraction, from which RNA and DNA were isolated using an AllPrep DNA/RNA Mini Kit (Qiagen). Alternatively, the cytosolic fraction was concentrated using Strataclean Resin (Agilent) and analysed by western blot. The pellet constituted a fraction containing membrane-bound organelles which was lysed in RNA lysis buffer for RNA isolation or lysed in western blot lysis buffer for analysis by western blot. To determine the presence of mtRNA and mtDNA in the cytosol, qPCR was performed using primers specific for mitochondrial D-loop on cDNA which had been reverse-transcribed from RNA isolated from the cytosolic fraction (mtRNA) and on DNA isolated from the cytosolic fraction (mtDNA). In both cases, values were normalised using a housekeeping control gene (β-actin) amplified in cDNA which had been reverse-transcribed from RNA isolated from the membrane-bound fraction.
On the technique in general: Real-time PCR tracks product formation cycle by cycle.

A further assay deals with human PBMCs. The assay can be described thus: RT-qPCR gene expression in human PBMCs. Type of assay: cell-based. The conditions noted are these: LPS-stimulated human PBMCs, LPS 4 h. As for the experimental part: Human blood samples from healthy donors were collected and processed at the School of Biochemistry and Immunology in TBSI (TCD). Blood samples were obtained anonymously and written informed consent for the use of blood for research purposes has been obtained from the donors. All the procedures involving experiments on human samples have been approved by the School of Biochemistry and Immunology Research Ethics Committee (TCD). Experiments were conducted according to the TCD guide on good research practice, which follows the guidelines detailed in the National Institutes of Health Belmont Report (1978) and the Declaration of Helsinki. […] The remaining pellet of mononuclear cells was resuspended, counted, and plated at 1×10^6 cells/ml in RPMI supplemented with FCS (10%) and penicillin/streptomycin (1%). […]
RNA extraction from cells was carried out using a Purelink™ RNA kit (Invitrogen) according to the manufacturer's instructions. […] Isolated RNA was quantified using a NanoDrop 2000 spectrophotometer, and RNA concentration was normalised to the lowest concentration across all samples with RNAse-free water. If necessary, samples were DNAse-treated after quantification using DNAse I (Thermo Fisher) according to the manufacturer's instructions. […]

SMILES strings stand for the structures. Structures can show the parent of a compound that is named as a salt.

Take `CCOC(=O)[C@@]12CCCC=C1N(Cc1ccc(-c3ccccc3)cc1)C(=O)[C@H]2CC(=O)NC` [FHIN1, Fumarate hydratase-IN-1]: in the assay on BMDMs (BMDMs pre-treated, LPS 4 h), the “mtRNA in whole cell fraction” value is on record as “not in the whole cell fraction”. In the assay with BMDMs (digitonin-fractionated BMDMs), the “mtDNA in cytosolic extracts (D-loop)” value is given as “increase” and the “mtRNA in cytosolic extracts” value is reported as “increased”. In addition, in the assay with human PBMCs, the IL10 expression entry is recorded as “suppressed” and the Tnfa expression result is listed as “increased”.
